Results from patent US11873298B2, “Compounds and uses thereof” (JANSSEN PHARMACEUTICA NV, priority 2017, dated 2024).

Columns and labels:
yeast OLE1 = molecular target: T1, yeast OLE1 (Saccharomyces cerevisiae, UniProt P21147); test: Growth of yeast surviving solely on yeast OLE1; format: cell-based
T1 construct: expressed in transfected cells; host or cells: S. cerevisiae ole1Δ strain (W303 pdr1Δ pdr3Δ background), plasmid pRS316 with TDH3 promoter and CYC1 terminator
T1 sequence (P21147 1-510): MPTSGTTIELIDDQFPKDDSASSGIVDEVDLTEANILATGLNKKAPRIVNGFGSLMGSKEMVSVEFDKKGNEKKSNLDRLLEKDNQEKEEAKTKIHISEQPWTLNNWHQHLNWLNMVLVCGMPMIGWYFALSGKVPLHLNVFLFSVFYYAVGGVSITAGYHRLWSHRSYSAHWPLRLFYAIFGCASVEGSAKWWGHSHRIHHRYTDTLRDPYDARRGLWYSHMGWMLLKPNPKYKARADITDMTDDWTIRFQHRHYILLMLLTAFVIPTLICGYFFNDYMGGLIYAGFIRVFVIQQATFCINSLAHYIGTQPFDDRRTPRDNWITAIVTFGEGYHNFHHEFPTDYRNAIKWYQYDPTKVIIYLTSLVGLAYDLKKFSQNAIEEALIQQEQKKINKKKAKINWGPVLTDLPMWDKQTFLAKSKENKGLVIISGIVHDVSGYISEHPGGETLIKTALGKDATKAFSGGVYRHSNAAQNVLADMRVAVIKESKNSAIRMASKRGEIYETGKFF
Procedure: (§1) FIG. 6 is a series of graphs showing that commercial Scd inhibitors target human SCD1/SCD5 in yeast. Yeast surviving solely on yeast OLE1, or human SCD1 or SCD5, were treated with four commercial Scd inhibitors at indicated concentrations. Data are expressed as a percent of the DMSO-treated condition.
(§2) FIG. 7 is a series of graphs showing that 1,2,4-oxadiazoles target human SCD1 and SCD5. Three “SCD” strains expressing yeast OLE1 or human SCD1 or SCD5 were treated with five representative 1,2,4-oxadiazoles and a cycloheximide toxicity control at concentrations indicated on the log10 x-axis. The y-axis indicates the percent of the DMSO-treated condition. […] Approximately one half of all (250) 1,2,4-oxadiazoles tested inhibited SCD1 or SCD5 in a manner that was reversed by oleic/palmitoleic acid treatment.

SCD5 [1] = molecular target: T2, SCD5 (Homo sapiens, UniProt Q86SK9); test: Growth of yeast surviving solely on human SCD5; format: cell-based
T2 construct: host or cells: S. cerevisiae ole1Δ strain (W303 pdr1Δ pdr3Δ background), plasmid pRS316 with TDH3 promoter and CYC1 terminator
T2 sequence (Q86SK9 1-330): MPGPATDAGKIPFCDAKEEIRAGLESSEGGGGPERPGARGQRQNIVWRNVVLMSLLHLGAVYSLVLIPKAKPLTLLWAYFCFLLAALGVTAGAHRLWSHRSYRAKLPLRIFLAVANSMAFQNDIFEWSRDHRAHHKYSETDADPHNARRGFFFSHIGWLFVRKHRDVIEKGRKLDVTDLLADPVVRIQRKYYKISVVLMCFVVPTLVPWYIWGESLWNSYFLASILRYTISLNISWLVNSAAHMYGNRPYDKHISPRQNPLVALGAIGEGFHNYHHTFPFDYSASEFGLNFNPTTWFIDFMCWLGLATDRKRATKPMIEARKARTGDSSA
Procedure: as §1, §2

SCD1 [2] = molecular target: T3, SCD1 (Homo sapiens, UniProt O00767); test: Growth of yeast surviving solely on human SCD1; format: cell-based
T3 construct: host or cells: S. cerevisiae ole1Δ strain (W303 pdr1Δ pdr3Δ background), plasmid pRS316 with TDH3 promoter and CYC1 terminator
T3 sequence (O00767 1-359): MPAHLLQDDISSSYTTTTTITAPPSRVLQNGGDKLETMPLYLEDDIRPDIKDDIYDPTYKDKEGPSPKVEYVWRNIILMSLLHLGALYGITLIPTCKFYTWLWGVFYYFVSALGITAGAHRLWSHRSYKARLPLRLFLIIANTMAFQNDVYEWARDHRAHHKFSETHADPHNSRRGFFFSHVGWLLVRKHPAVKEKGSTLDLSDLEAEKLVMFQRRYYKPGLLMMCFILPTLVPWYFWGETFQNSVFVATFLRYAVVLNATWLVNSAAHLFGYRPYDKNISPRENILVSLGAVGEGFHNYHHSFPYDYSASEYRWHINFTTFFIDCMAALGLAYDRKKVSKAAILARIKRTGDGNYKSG
Procedure: as §1, §2

[3] = tested on: U2OS cells transiently overexpressing alpha-synuclein; test: U2OS transient overexpression induced cytotoxicity assay (ATP content, CellTiter-Glow); format: cell-based, human; settings: 72 hours post transfection
Procedure: U2OS (Sigma-Aldrich), a human bone osteosarcoma epithelial cell line, is regularly maintained in McCoy's 5A medium (ATCC) supplemented with 10% FBS (ThermoFisher) between passage 11-21 and sub -cultured twice a week for the assay.
On the day of experiment, cells are about 80% confluence and trypsinized using 0.25% trypsin-EDTA (ThermoFisher Inc.) for 5 minutes at 37 c. Based on a ratio of 2 ug DNA/2e5 cells, required cells are spun down at 800 rpm for 5 minutes at room temperature. Cells are then re-suspended in SE solution (Lonza Inc.) at a density of 2e4 cells/μl. Nucleofection is performed using 4D-Nucleofector™ System (Lonza Inc.) under program code CM130. Cells are allowed to recover in the cuvette at room temperature for 10-15 minutes before further handling. Pre-warmed medium is added and cells suspension is thoroughly but gently mixed before plating. Cells are seeded at 2e4 cells/100 µl/well into 96 well PLD-coated white plate (Corning) using customized Viaflow program (Integra Biosciences). Serial dilution of drugs is carried out in DMSO. Drug solution is prepared at 6× fold, 20 ul of which is added to cells 4 hours after transfection. The final DMSO concentration is 0.3%. Microclimate lid (Labcyte) is strongly recommended to reduce evaporation and variation. Seventy-two hours post transfection, cells are lysed using CellTiter-Glow (Promega) and ATP content is determined using a luminescence plate reader (Perkin Elmer).
% Maximum fold rescue at each concentration is calculated as follows: […]
FK506 (tacrolimus), a macrolide calcineurin inhibitor, is used as reference compound in the assay.
% Rescue (normalized by max fold rescue of FK506)=(% Fold^αSyn drug-100)*100/(% Max fold^αSyn FK506-100).

[4] = tested on: yeast strains expressing the human α-synuclein; settings: reference compound, earlier work; cited from earlier work
SCD5 [5] = molecular target: T2, SCD5; test: Growth inhibition of humanized yeast strain expressing SCD5 as sole desaturase; format: cell-based; settings: humanized yeast strain expressing SCD5
Summary of the method: (§3)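 ole1Δ yeast (W303 pdr1Δ pdr3Δ background) carrying plasmid-borne Ole1, SCD1 or SCD5, grown in uracil-free media; cultures pre-grown in raffinose, seeded at 2× density 0.02 in galactose media with compound. Growth read as OD600 after 24 h at 30° C. for Ole1, 40 h for SCD1/SCD5.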

Ole1 = molecular target: T4, Ole1 (Saccharomyces cerevisiae, UniProt P21147); test: Growth inhibition of yeast strain expressing Ole1 as sole desaturase; format: cell-based; settings: yeast strain expressing Ole1 as sole desaturase
T4 construct: expressed in transfected cells; host or cells: S. cerevisiae ole1Δ strain (W303 pdr1Δ pdr3Δ background), plasmid pRS316 with TDH3 promoter and CYC1 terminator
T4 sequence (P21147 1-510): T1 sequence (P21147 1-510)
Summary of the method: as §3

[6] = tested on: yeast strains expressing the human ApoE4; test: Yeast ApoE4 toxicity rescue assay (OD600 growth); settings: 24 h; for EC50: read-out: ApoE4 EC50; for Emax: read-out: ApoE4 Emax
Text: (§4) The induced expression of α-synuclein and ApoE4 confers cytotoxicity, thus enabling the identification of compounds that can restore cell viability. This instantaneous/synchronous induction of α-synuclein and ApoE4 can be achieved due to the following expression control. In glucose-containing media, gene expression from the GAL1 promoter is ‘off’ and actively repressed by additional epigenetic factors. In raffinose, expression is ‘off’, but the promoter not actively repressed. Upon transition to galactose-containing media, the promoter is instantaneously turned ‘on’ to achieve robust and synchronous induction of α-synuclein or ApoE4 expression. This highly regulated induction provides a robust window for the determination of both efficacy (amplitude of protective effect) and potency (concentration of protective effect) of cytoprotective compounds.
(§5) Re-suspended compound stocks were subsequently arrayed into 384 well compound plates using automated pipetting. All other wells not receiving stock compound were filled with 10 μL of 100% DMSO using an automated plate filler (Multidrop Combi). An 11 point, 2-fold serial dilution was then performed using the robotic platform. Compound assay plates were covered with foil and stored at −20° C. until use.
(§6) Each strain was handled according to standard protocols and cultured in media composed of CSM (complete synthetic media), YNB (yeast nitrogenous base), and a 2% (w/v) carbon source (either glucose, raffinose, or galactose).
(§7) In a standard yeast assay, a single-use aliquot of cells was thawed on ice and diluted into CSM/glucose (5 mL). Cultures were grown for 8 hours at 30° C. This pre-growth enables the yeast to exit the thaw and begin to grow without expressing aSyn or ApoE4. After 8 hours, cell density (OD600) was determined and cultures diluted to an OD600 of 0.01 in CSM/raffinose for an overnight culture phase at 30° C. During this period, the active glucose repression of the GAL1 promoter was relieved; however, expression of the α-Syn/ApoE4 genes were not yet induced. After ˜16 hours of growth, cultures attain an OD600 of 0.4-0.8 and were ready to apply to assay plates containing compound.
(§8) Compound profiling assays were executed in clear-bottom 384 well plates. First, compound plates were thawed at room temperature for 45′, centrifuged at 1,000×g for 1 minute, and the foil removed. Clear 384 well assay plates were then filled with 15 μL of CSM/galactose. […] The pin tool was washed iteratively with both 50% DMSO and 100% ethanol between each assay plate. After delivering compound to each assay plate, the overnight CSM/raffinose aSyn or ApoE4 cultures were added at a 2X cell density (0.04 for aSyn and 0.08 for ApoE4) in CSM/galactose to achieve a final assay OD600 of 0.02 and 0.04 for aSyn and ApoE, respectively. The cultures (15 μL per well) were then dispensed to the compound -containing 384 well assay plates using an automated plate filler. Plates were incubated in a humidified 30° C. incubator for 40 or 24 hours for aSyn and ApoE4, respectively. The ODsoo of each assay plate was then read with a microplate reader (e.g., Perkin Elmer Envision).
(§9) The efficacy and potency of compounds were calculated according to the following. Raw data (OD600 values) were first background corrected to account for OD600 contributed by the plate and media itself. The efficacy (percent above DMSO, herein referred to as “Emax”) was calculated according to the equation: (Experimental well−DMSO control well)/(DMSO control well)*100. […] Normalized dose-response data was fit with a logistic regression curve using Spotfire (TIBCO), or similar curve-fitting software package. EC50 values were then reported along with EMax to provide both efficacy and potency measures for each analog and enable further compound design.

SCD1 [7] = molecular target: T3, SCD1; test: Growth inhibition of humanized yeast strain expressing SCD1 as sole desaturase; format: cell-based; settings: humanized yeast strain expressing SCD1
Summary of the method: as §3

[8] = tested on: yeast strains expressing the human α-synuclein; test: Yeast α-synuclein toxicity rescue assay (OD600 growth); settings: 40 h; for EC50: read-out: α-Syn EC50; for Emax: read-out: α-Syn Emax
Text: as §4, §5, §6, §7, §8, §9

SMILES | growth of the strain expressing yeast OLE1 (percent of the DMSO-treated condition) (yeast OLE1) | growth of SCD5-expressing yeast (percent of the DMSO-treated condition) (SCD5 [1]) | growth of SCD1-expressing yeast (percent of the DMSO-treated condition) (SCD1 [2]) | % Rescue (normalized by FK506 max rescue) ([3]; 0.01 μM) | % Rescue (normalized by FK506 max rescue) ([3]; 0.1 μM) | % Rescue (normalized by FK506 max rescue) ([3]; 0.3 μM) | % Rescue (normalized by FK506 max rescue) ([3]; 1 μM) | rescue of αSyn toxicity in yeast models [4] | IC50 (SCD5 [5]) | IC50 (Ole1) | EC50 [6] | Emax [6] | IC50 (SCD1 [7]) | EC50 [8] | Emax [8]
C[C@@H]1C[C@@H]([C@H](O)CC2CC(=O)NC(=O)C2)C(=O)[C@@H](C)C1 [Cyclohexamide, cycloheximide] | inhibited growth of all three strains with the same potency | inhibited growth of all three strains with the same potency | inhibited growth of all three strains with the same potency | – | – | – | – | – | – | – | – | – | – | – | –
Cc1nn(C)c2cc(-c3noc(C4CCN(C(=O)CNC(=O)c5ccccc5)CC4)n3)ccc12 [Example 40, N-(2-(4-(3-(1,3-dimethyl-1H-indazol-6-yl)-1,2,4-oxadiazol-5-yl)piperidin-1-yl)-2-oxoethyl)benzamide] | – | – | – | 107% | 137% | 105% | 77% | – | – | – | – | – | – | – | –
CCOc1ccc(-c2noc(C3CCN(C(=O)CNC(=O)c4ccccc4)CC3)n2)cc1OC [Example 155, N-(2-(4-(3-(4-ethoxy-3-methoxyphenyl)-1,2,4-oxadiazol-5-yl)piperidin-1-yl)-2-oxoethyl)benzamide] | – | – | – | −23% | 83% | 44% | 10% | – | – | – | – | – | – | – | –
C=CC[C@@H]1/C=C(\C)C[C@H](C)C[C@H](OC)[C@H]2O[C@@](O)(C(=O)C(=O)N3CCCC[C@H]3C(=O)O[C@H](/C(C)=C/[C@@H]3CC[C@@H](O)[C@H](OC)C3)[C@H](C)[C@@H](O)CC1=O)[C@H](C)C[C@@H]2OC [FK506, tacrolimus] | – | – | – | – | – | – | – | rescue αSyn toxicity | – | – | – | – | – | – | –
O=C(NCC(=O)N1CCC(c2nc(-c3ccc4ccccc4n3)no2)CC1)c1ccccc1 [compound 79] | – | – | – | – | – | – | – | – | > 45 µM | > 45 µM | 18.8 µM | 631% | > 45 µM | 9910 nM | 627%
CCOc1ccc(-c2noc(C3CCN(C(=O)NC4CC4c4ccccc4)CC3)n2)cc1OC (stereo not drawn) [compound 80] | – | – | – | – | – | – | – | – | > 45 µM | > 45 µM | 6.01 µM | 262% | > 45 µM | 3320 nM | 188%
CCOc1ccc(-c2noc(C3CCN(C(=O)NCCc4ccccc4)CC3)n2)cc1OC [compound 83] | – | – | – | – | – | – | – | – | > 45 µM | > 45 µM | – | 567% | > 45 µM | 9310 nM | 151%
CCOc1ccc(-c2noc(C3CCN(C(=O)[C@H]4CC(=O)N(c5ccccc5)C4)CC3)n2)cc1OC [compound 85] | – | – | – | – | – | – | – | – | > 45 µM | > 45 µM | 17 µM | 602% | > 45 µM | 12600 nM | 486%
CCOc1ccc(-c2noc(C3CCN(C(=O)[C@@H]4CC(=O)N(c5ccccc5)C4)CC3)n2)cc1OC [compound 86] | – | – | – | – | – | – | – | – | 33.3 µM | > 45 µM | 0.064 µM | 633% | > 45 µM | 18 nM | 772%
Cc1nn(C)c2cc(-c3noc(N4CCN(C(=O)C5CC(=O)N(c6ccccc6)C5)CC4)n3)ccc12 (stereo not drawn) [compound 96] | – | – | – | – | – | – | – | – | > 45 µM | > 45 µM | 0.228 µM | 840% | > 45 µM | 26 nM | 343%
CCOc1ccc(-c2noc(C3CCN(C(=O)CNC(=O)c4ccccc4)CC3)n2)cc1F [compound 97] | – | – | – | – | – | – | – | – | 30 µM | > 45 µM | 3.88 µM | 704% | > 45 µM | 707 nM | 132%
CCOc1ccc(-c2noc(C3CCN(C(=O)c4cnc(-c5ccccc5)[nH]4)CC3)n2)cc1OC [compound 98] | – | – | – | – | – | – | – | – | 41.1 µM | > 45 µM | 9.75 µM | 650% | > 45 µM | 8010 nM | 386%
CCOc1ccc(-c2noc(C3CCN(C(=O)CNC(=O)c4ccccc4)CC3)n2)cc1Br [compound 99] | – | – | – | – | – | – | – | – | > 45 µM | > 45 µM | 2.75 µM | 663% | > 45 µM | 1030 nM | 209%
CCOc1ccc(-c2noc(N3CCC(C(=O)N4CCCC(c5ccccc5)C4)CC3)n2)cc1OC (stereo not drawn) [compound 100] | – | – | – | – | – | – | – | – | > 45 µM | > 45 µM | 2.11 µM | 651% | 32.8 µM | 1190 nM | 385%
